Test system: 485368-065-R3-J5-PDC spheroids with HUVEC/MSC, viability
Assay: Anticancer human tumor 485368-065-R3-J5-PDC patient-derived pancreatic carcinoma cell line growth inhibition [RAS]
Settings: for IC50: curve of first compound; for viability, T/C: stronger effect = lower value; active = viability on the fitted dose curve at most 10% of control; inactive = the rest
Outline: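 Agents were tested in combination matrices in half-log decrements from a top concentration at or near clinical Cmax (10 microM if undetermined). Targets were multi-cell spheroids of tumour lines plus HUVEC and MSC stromal cells.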
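Also: spheroids exposed to agents for seven days before readout.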

C=CC(=O)N1CCN(c2nc(OCC3CCCN3C)nc3c(F)c(-c4nc(N)cc(C)c4C(F)(F)F)c(Cl)cc23)C(C)C1 (centres undefined) + CCn1c(-c2cc(N3CCN(C)CC3)cnc2C(C)OC)c2c3cc(ccc31)-c1csc(n1)CC(NC(=O)C1CC1C)C(=O)N1CCCC(N1)C(=O)OCC(C)(C)C2
inactive: viability, T/C (second compound 0.000949 µM, first compound 0.00316 µM) 32.9% | viability, T/C (second compound 0.000949 µM, first compound 0.01 µM) 35.6% | viability, T/C (second compound 0.000949 µM, first compound 0.0316 µM) 36.7% | viability, T/C (second compound 0.000949 µM, first compound 0.1 µM) 29.5% | viability, T/C (second compound 0.000949 µM, first compound 0.316 µM) 30.1% | viability, T/C (second compound 0.000949 µM, first compound 1 µM) 38.9% | viability, T/C (second compound 0.003 µM, first compound 0.00316 µM) 23.4% | viability, T/C (second compound 0.003 µM, first compound 0.01 µM) 21.4% | viability, T/C (second compound 0.003 µM, first compound 0.0316 µM) 21.2% | viability, T/C (second compound 0.003 µM, first compound 0.1 µM) 20.9% | viability, T/C (second compound 0.003 µM, first compound 0.316 µM) 20.9% | viability, T/C (second compound 0.003 µM, first compound 1 µM) 19.6% | viability, T/C (second compound 0.00949 µM, first compound 0.00316 µM) 17.3% | viability, T/C (second compound 0.00949 µM, first compound 0.01 µM) 18.3% | viability, T/C (second compound 0.00949 µM, first compound 0.0316 µM) 15.8% | viability, T/C (second compound 0.00949 µM, first compound 0.1 µM) 15.6% | viability, T/C (second compound 0.00949 µM, first compound 0.316 µM) 18% | viability, T/C (second compound 0.00949 µM, first compound 1 µM) 15.2% | viability, T/C (second compound 0.03 µM, first compound 0.00316 µM) 12.1% | viability, T/C (second compound 0.03 µM, first compound 0.01 µM) 11.4% | viability, T/C (second compound 0.03 µM, first compound 0.0316 µM) 12.5% | viability, T/C (second compound 0.03 µM, first compound 0.1 µM) 12.9% | viability, T/C (second compound 0.03 µM, first compound 0.316 µM) 12.8% | viability, T/C (second compound 0.03 µM, first compound 1 µM) 15.7% | viability, T/C (second compound 0.0949 µM, first compound 0.00316 µM) 10% | viability, T/C (second compound 0.0949 µM, first compound 0.01 µM) 12.6% | viability, T/C (second compound 0.0949 µM, first compound 0.0316 µM) 11.2% | viability, T/C (second compound 0.0949 µM, first compound 0.1 µM) 9.36% | viability, T/C (second compound 0.0949 µM, first compound 0.316 µM) 9.84% | viability, T/C (second compound 0.0949 µM, first compound 1 µM) 12.7% | viability, T/C (second compound 0.3 µM, first compound 0.00316 µM) 10.8%
active: viability, T/C (second compound 0.3 µM, first compound 0.01 µM) 9.38% | viability, T/C (second compound 0.3 µM, first compound 0.0316 µM) 9% | viability, T/C (second compound 0.3 µM, first compound 0.1 µM) 8.35% | viability, T/C (second compound 0.3 µM, first compound 0.316 µM) 10.7% | viability, T/C (second compound 0.3 µM, first compound 1 µM) 11%
< 3.16 nM: IC50 (second compound 0.000949 µM) | IC50 (second compound 0.003 µM) | IC50 (second compound 0.00949 µM) | IC50 (second compound 0.03 µM) | IC50 (second compound 0.0949 µM) | IC50 (second compound 0.3 µM)

CC1(C)CCC(Nc2ncc(C(F)(F)F)c(-c3c[nH]c4c(P(C)(C)=O)c(C#N)ccc34)n2)CN1 (centres undefined) + CCn1c(-c2cc(N3CCN(C)CC3)cnc2C(C)OC)c2c3cc(ccc31)-c1csc(n1)CC(NC(=O)C1CC1C)C(=O)N1CCCC(N1)C(=O)OCC(C)(C)C2
inactive: viability, T/C (second compound 0.000949 µM, first compound 0.000949 µM) 48.5% | viability, T/C (second compound 0.000949 µM, first compound 0.003 µM) 36.9% | viability, T/C (second compound 0.000949 µM, first compound 0.00949 µM) 26.8% | viability, T/C (second compound 0.000949 µM, first compound 0.03 µM) 31% | viability, T/C (second compound 0.000949 µM, first compound 0.0949 µM) 31.2% | viability, T/C (second compound 0.000949 µM, first compound 0.3 µM) 30.4% | viability, T/C (second compound 0.003 µM, first compound 0.000949 µM) 24.4% | viability, T/C (second compound 0.003 µM, first compound 0.003 µM) 26.2% | viability, T/C (second compound 0.003 µM, first compound 0.00949 µM) 24.3% | viability, T/C (second compound 0.003 µM, first compound 0.03 µM) 23.6% | viability, T/C (second compound 0.003 µM, first compound 0.0949 µM) 26.9% | viability, T/C (second compound 0.003 µM, first compound 0.3 µM) 27.4% | viability, T/C (second compound 0.00949 µM, first compound 0.000949 µM) 17.1% | viability, T/C (second compound 0.00949 µM, first compound 0.003 µM) 19% | viability, T/C (second compound 0.00949 µM, first compound 0.00949 µM) 19.6% | viability, T/C (second compound 0.00949 µM, first compound 0.03 µM) 19.9% | viability, T/C (second compound 0.00949 µM, first compound 0.0949 µM) 24.5% | viability, T/C (second compound 0.00949 µM, first compound 0.3 µM) 21.1% | viability, T/C (second compound 0.03 µM, first compound 0.000949 µM) 14% | viability, T/C (second compound 0.03 µM, first compound 0.003 µM) 18.8% | viability, T/C (second compound 0.03 µM, first compound 0.00949 µM) 17.4% | viability, T/C (second compound 0.03 µM, first compound 0.03 µM) 18.6% | viability, T/C (second compound 0.03 µM, first compound 0.0949 µM) 22.4% | viability, T/C (second compound 0.03 µM, first compound 0.3 µM) 21.2% | viability, T/C (second compound 0.0949 µM, first compound 0.000949 µM) 13.2% | viability, T/C (second compound 0.0949 µM, first compound 0.003 µM) 15.9% | viability, T/C (second compound 0.0949 µM, first compound 0.00949 µM) 15.7% | viability, T/C (second compound 0.0949 µM, first compound 0.03 µM) 17% | viability, T/C (second compound 0.0949 µM, first compound 0.0949 µM) 20.2% | viability, T/C (second compound 0.0949 µM, first compound 0.3 µM) 23.2% | viability, T/C (second compound 0.3 µM, first compound 0.000949 µM) 11.7% | viability, T/C (second compound 0.3 µM, first compound 0.003 µM) 15.8% | viability, T/C (second compound 0.3 µM, first compound 0.00949 µM) 15.4% | viability, T/C (second compound 0.3 µM, first compound 0.03 µM) 21.9% | viability, T/C (second compound 0.3 µM, first compound 0.0949 µM) 19.4% | viability, T/C (second compound 0.3 µM, first compound 0.3 µM) 22.6%
< 0.949 nM: IC50 (second compound 0.000949 µM) | IC50 (second compound 0.003 µM) | IC50 (second compound 0.00949 µM) | IC50 (second compound 0.03 µM) | IC50 (second compound 0.0949 µM) | IC50 (second compound 0.3 µM)
